From patent publication US10479792B2, “Compounds” (GlaxoSmithKline Intellectual Property Development Limited, priority 2015, dated 2019)

Legend:
RnH9c2 cells = experiment: Trypanosoma cruzi intracellular assay (Assay 2), host cell cytotoxicity; format: cell-based; conditions: rat, H9C2 cardiomyocytes infected with Trypanosoma cruzi, 72 h incubation, read-out: cytotoxicity against RnH9c2 cells, pEC50 (converted)
Experimental: Compounds were dispensed into black 384-well assay plates (Greiner) by acoustic dispensing (LabCyte ECHO). For potency determinations, eleven-point, one in three dilution curves were generated, with a top concentration of 50 μM. H9C2 rat cardiomyocytes cells were dispensed in T225 tissue culture flasks and after 4 hours they were infected during 18 hours with T. cruzi trypomastigotes in the same T225 tissue culture flasks at a multiplicity of infection of 1. Next, any remaining free trypomastigotes were washed away with PBS and the infected H9C2 cells were harvested by trypsinisation. The infected H9C2 cells were then plated into 384-well plates containing the compounds to be tested, at 2500 cells per well in DMEM media with 2% FBS, 1% Penicillin/Streptomicin, 2 mM L-Glutamine, 1 mM Na Pyruvate and 25 mM HEPES. After 72 h incubation at 37° C. in presence of 5% CO2, the plates were fixed and stained with 4% formaldehyde and 2 μM Draq5 for 3 hours at room temperature. The plates were imaged on a Perkin Elmer Opera high-content imaging system using a 20× air objective. Images were analyzed using the Acapella building blocks system (Perkin Elmer). The image analysis algorithm first identified the H9C2 nuclei followed by demarcation of the cytoplasm and identification of intracellular amastigotes. This algorithm reported mean number of parasites per H9C2 cell, the percentage of infected H9C2 cells and the total number of H9C2 cells.

Trypanosoma brucei = Trypanosoma brucei cell growth inhibition assay (Assay 3); format: cell-based, T. b. brucei, BSF427, VSG118; conditions: 69 h + 4 h resazurin, read-out: pEC50 value against Trypanosoma brucei (converted)
Experimental: Assay 3. Trypanosoma brucei Cell Growth Inhibition Assay
Measurement of the ability of the compounds to inhibit trypanosome (T. b. brucei, BSF427, VSG118) cell growth was performed using a modification of the cell viability assay previously described by Raz et al. (Raz B.; Iten M.; Grether-Buhler Y.; Kaminski R.; Brun R. The Alamar Blue assay to determine drug sensitivity of African trypanosomes (T. b. rhodesiense and T. b. gambiense) in vitro. Acta Trop. 1997, 68, 139-147). Compounds were dissolved in DMSO at a top concentration of 10 mM and serially diluted in half log steps to achieve a range of final assay concentrations of 50 μM to 0.5 nM. Compound at each concentration (200-fold final) was added to clear 96-well tissue culture plates in a volume of 1 μL. […] Plates were then read on a BioTek flx800 fluorescent plate reader, and percentage inhibition was compared to the maximum and minimum assay controls. Concentration effect curves were fitted using nonlinear regression using XLFit 4.2 and EC50 values determined.

THP-1 cells = experiment: Leishmania donovani intracellular assay (Assay 5), THP-1 cytotoxicity; format: cell-based; conditions: human, 96 h incubation, read-out: cytotoxicity against THP-1 cells, pEC50 (converted)
Experimental: Assay 5. Leishmania donovani Intracellular Assay
Compounds were dispensed into black 384-well assay plates (Greiner) by acoustic dispensing (LabCyte ECHO). For potency determinations, eleven-point, one in three dilution curves were generated, with a top concentration of 50 μM. THP-1 human monocytes cells were dispensed in T225 tissue culture flasks and differentiated using 30 nM of PMA, after 24 hours they were infected overnight using Leishmania donovani expressing Green Fluorescent Protein (eGFP) amastigotes in the same T225 tissue culture flasks at a multiplicity of infection of 10. Next, any remaining free amastigotes were washed away with PBS and the infected THP-1 cells were harvested by trypsinisation. The infected cells were then plated into 384-well plates containing the compounds to be tested, at 3000 cells per well in RPMI media with 2% FBS and 25 mM Sodium bicarbonate. After 96 h incubation at 37° C. in presence of 5% CO2, the plates were fixed with 4% formaldehyde for 30 minutes, washed with PBS and stained with 0.1 mg/mL of DAPI for 30 minutes and washed again with PBS. The plates were imaged on a Perkin Elmer Opera high-content imaging system using a 20× air objective with two expositions, one for DAPI stain and other for eGFP. Images were analysed using the Acapella building blocks system (Perkin Elmer). The image analysis algorithm first identified the THP-1 nuclei followed by demarcation of the cytoplasm and identification of intracellular amastigotes. This algorithm reported mean number of parasites per THP-1 cell, the percentage of infected THP-1 cells and the total number of THP-1 cells.

EC50 (Trypanosoma brucei): 0.01 µM
Structure (SMILES): O=C(Nc1ccc(F)c(-c2ccn3c(N4CCOCC4)cnc3n2)c1)N1CCCC1 [Example 4, N-(4-fluoro-3-(3-morpholinoimidazo[1,2-a]pyrimidin-7-yl)phenyl)pyrrolidine-1-carboxamide]
EC50 at 72 h (RnH9c2 cells): > 50.1 µM | EC50 at 96 h (THP-1 cells): > 50.1 µM
